Laboratory results as given in US20250020635A1, “ASSAY METHODS AND USES THEREOF FOR SCREENING ALZHEIMER'S DISEASE TREATMENT COMPOUNDS” (priority 2023, published 2025).
Entries after “also recorded” stand apart in the source; their conditions may differ. Like-named read-outs stand apart in the source and are kept apart here.

How the values were obtained:
BV2 cells = assay: Microglial phagocytosis/cell health high-content assay, BV2 cells; format: cell-based; conditions: for Ave. % Cell Count @ 60 uM BV2 cells / Ave. % Phagocytosis @ 60 uM BV2 cells: 48 hrs, compared to control; for phagocytosis increase against cell count decline: HMC3 and BV2 cells (Table 6, FIGS. 21, 22); for EC50 / IC50: Mus musculus, BV-2; for IC50: read-out: cell count decrease IC50
Experimental: (§1) The assay introduced here is a simplified cellular imaging assay without any fixation and washing steps, while producing multiparameter measurements with high capacity using a 384-well plate format. The assay procedures include plating cells on day 1, incubating cell plates overnight before treating cells on day 2, adding pHrodo™-myelin/membrane debris to cell plates on day 3, and 20 hr later, staining cell nuclei with Hoechst-33342 for 30 min before performing high-content imaging on day 4. Three selected parameters are measured from cells: 1) mean total fluorescence intensity per cell of pHrodo™-myelin/membrane debris in phagocytosis vesicles to quantify phagocytosis; 2) cell counts per well to quantify treatment effects on proliferation and cell death; and 3) average nuclear intensity to quantify treatment-induced nuclear changes such as in apoptosis. The assay has been used on HMC3 cells (an immortalized human microglial cell line), BV2 cells (an immortalized mouse microglial cell line), and primary microglia isolated from mouse brains. For initial assay attempts, we recommend using HMC3 cells available from the ATCC.
(§2) All collected raw data are normalized to the untreated control with following formula: % of control=100×(X−Min)/(Max−Min). Factors in the formula are: X is raw data from a treated well, Max is an average measurement from pHrodo™-myelin seeded but untreated wells, and Min is an average measurement from no pHrodo™-myelin untreated wells. Normalized data are used for curve fitting that is done with the variable slope (four parameters) using the Prism software.
(§3) To ensure that the measurements reflect the steady state of compound treatment effects and cell health, the assay was set with a total compound treatment time of 48 hr, including pHrodo™-myelin/membrane debris seeding performed 20-24 hr after compound addition. […] Among many available quantitative measurements from the image analysis, we selected three parameters for the assay:
(§4) 1) The mean total intensity of phagocytosis vesicles/cell—to measure phagocytosis. There are multiple parameters generated from the image analysis, including phagocytosis vesicle area, number, and various fluorescence intensity measurements. Comparing these parameters, the total fluorescence intensity of vesicles/cell is the most sensitive one and was chosen for quantifying phagocytosis.
(§5) 2) The total cell counts—to measure overall cell viability, which is affected by proliferation and cell death. We chose to take 4 images/well (with the 10× objective lens) that cover about 50% of the total area of a well in a 384-well plate to represent cell count of the well.
(§6) 3) The average nuclear intensity—to measure drug-induced apoptosis, with high signal indicating nuclear condescension (a sign of early apoptosis) and low signal indicating DNA degradation (a sign of later apoptosis, when activated caspases digest DNA).
(§7) A phenotypic high-content imaging assay with simultaneous measurements of phagocytosis, cell number, and nuclear intensity was used to assess both cellular pharmacology and cell health. Model cell lines BV2 (immortalized mouse microglia, a gift from Dr. Michelle Block's laboratory at IUSM) and HMC3 (immortalized human microglia, obtained from ATCC, CRL-3304) were used to provide adequate throughput. Cells were cultured in DMEM GlutaMax media (ThermoFisher) containing 10% FBS and Pen-Strep in a 37° C. 5% CO2 incubator, plated in Corning Falcon 384 well Optilux Black and clear bottom plates: 400 cells/45 μl/well (BV2 cells), 600 cells/45 μl/well (HMC3 cells) and 2000 cell/45 μl/well (primary cells), and treated with 10× serially diluted compounds (60 μM-3 nM) for 48 hrs at 37° C. […]

HiBit only = assay: Cellular thermal shift assay (CETSA), HiBit only control; format: cell-based, human; conditions: for HiBit only %, percent luminescence at highest dose with HiBit only compared to control (DMSO): 100 μM; for HiBit only % @100 μM: Table 1
PLCγ2-HiBit = target: T1, PLCγ2-HiBit (Homo sapiens, UniProt P16885); assay: Cellular thermal shift assay (SplitLuc CETSA), PLCγ2-HiBit in HMC3 cells; format: cell-based; conditions: for PLCγ2-HiBit %, percent luminescence at highest dose compared to control (DMSO): 100 μM
T1 construct: expressed in transfected cells; host or cells: HMC3 cells
T1 sequence (P16885 1-1265): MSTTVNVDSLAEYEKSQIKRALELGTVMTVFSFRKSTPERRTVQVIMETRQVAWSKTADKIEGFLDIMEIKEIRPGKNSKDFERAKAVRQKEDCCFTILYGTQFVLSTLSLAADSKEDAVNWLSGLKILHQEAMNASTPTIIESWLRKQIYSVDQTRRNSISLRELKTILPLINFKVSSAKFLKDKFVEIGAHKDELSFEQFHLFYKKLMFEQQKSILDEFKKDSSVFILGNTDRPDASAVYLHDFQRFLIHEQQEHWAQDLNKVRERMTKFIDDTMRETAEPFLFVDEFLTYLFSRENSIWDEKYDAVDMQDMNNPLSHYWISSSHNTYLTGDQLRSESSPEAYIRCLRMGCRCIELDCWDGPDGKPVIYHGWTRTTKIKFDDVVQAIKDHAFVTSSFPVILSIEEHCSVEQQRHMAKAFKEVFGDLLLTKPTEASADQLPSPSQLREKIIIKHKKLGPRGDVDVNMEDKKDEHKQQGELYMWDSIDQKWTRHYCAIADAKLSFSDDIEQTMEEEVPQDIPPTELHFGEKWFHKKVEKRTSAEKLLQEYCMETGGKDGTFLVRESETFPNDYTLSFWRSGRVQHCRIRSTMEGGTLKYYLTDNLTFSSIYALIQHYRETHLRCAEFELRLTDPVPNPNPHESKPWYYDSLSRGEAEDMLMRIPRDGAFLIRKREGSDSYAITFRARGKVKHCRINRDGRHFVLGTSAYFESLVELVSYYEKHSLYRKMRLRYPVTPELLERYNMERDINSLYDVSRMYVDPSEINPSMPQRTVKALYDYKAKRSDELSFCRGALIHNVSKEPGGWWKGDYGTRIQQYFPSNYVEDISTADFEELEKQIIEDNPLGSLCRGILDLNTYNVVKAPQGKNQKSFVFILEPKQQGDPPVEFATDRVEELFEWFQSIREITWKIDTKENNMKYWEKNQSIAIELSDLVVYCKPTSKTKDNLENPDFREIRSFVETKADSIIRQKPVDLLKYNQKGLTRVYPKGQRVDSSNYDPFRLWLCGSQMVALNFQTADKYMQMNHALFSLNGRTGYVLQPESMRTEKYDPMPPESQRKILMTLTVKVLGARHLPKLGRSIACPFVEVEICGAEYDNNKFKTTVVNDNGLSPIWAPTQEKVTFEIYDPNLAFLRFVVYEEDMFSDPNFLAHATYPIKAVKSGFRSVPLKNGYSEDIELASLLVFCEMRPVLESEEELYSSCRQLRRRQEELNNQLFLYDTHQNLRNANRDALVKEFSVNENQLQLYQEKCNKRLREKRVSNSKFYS
Text: These compounds have been evaluated using a wide variety of assay classes namely target engagement utilizing cellular thermal shift assay (CETSA),^34 affinity selection mass spectrometry (ASMS),^35 biochemical activity employing the fluorogenic probe XY-69,^36 and cellular activity testing for phagocytosis. Cellular Thermal Shift Assays (CETSA) assess cellular target engagement by quantifying changes in protein thermal stability upon ligand binding to endogenous proteins in intact cells.^34 For SAR studies, a split Nano Luciferase (SplitLuc CETSA) version of the assay was utilized to provide sufficient throughput.^37,38 HMC3 cells were stably transfected with PLCγ2-HiBit to enable protein expression in a physiologically relevant cellular context. The thermal stability of this HiBit-labeled protein in intact cells was measured in the following two formats. In the initial screen, using 96-well plates, cells were treated with FBS analogs at a single concentration (100 μM) at 37° C. for 60 min and then exposed to a 3-minute isothermal heating step at 45.9° C. (experimentally determined Tm of PLCγ2-HiBit). Luminescence detection was then conducted with the Nano-Glo HiBit Lytic detection kit (Promega, Cat. N3040).^38 Compound treatment was performed in triplicate, and raw signals were normalized to the mean of the controls (in the same plate) as % of control. When the difference in compound-treated cells >control mean+3SD, the compound was considered positive and selected for further testing with dose-response CETSA. In the dose response CETSA, cells were treated with decreasing concentrations from 100 μM with 1:3 serial dilutions to generate an 8-point curve. An AC50 was calculated with the % of control data using a four-parameter logistic curve regression model, and the percent luminescence remaining at the highest concentration is also reported for the compounds when the difference from the DMSO control is greater than 3× the standard deviation (SD). Otherwise, an AC50 was not calculated.

HMC3 cells = assay: Microglial phagocytosis/cell health high-content assay, HMC3 cells; format: cell-based; conditions: for Ave. % Cell Count @ 60 uM HMC3 cells / Ave. % Phagocytosis @ 60 uM HMC3 cells: 48 hrs, compared to control; for IC50: read-out: inhibition of phagocytosis IC50; for EC50: read-out: stimulation of phagocytosis EC50
Experimental: as §1, §2, §3, §4, §5, §6, §7

[1] = Kinetic solubility in pH 7.4 phosphate buffer; format: physicochemical
Experimental: (§8) Physicochemical and ADME properties were determined using the following assays: microsomal stability intrinsic clearance (Clint) in mouse liver microsomal solution, MDCK permeability (Papp), protein binding (fu) in mouse plasma, and kinetic solubility in pH 7.4 phosphate buffer (Table 7).

MDCK = MDCK permeability; format: in vitro ADME; conditions: estimate of intestinal absorption
Experimental: as §8

[2] = Table 1, CETSA dose response, read-out: AC50
[3] = Table 5, 8-point dose response from 100 μM, HMC3 cells, 45.9° C., read-out: AC50, concentration that induced a half-maximum loss of luminesce compared to control
[4] = Homo sapiens, HMC3, 48 h, HMC3 cells, 48 hours treatment

| Compound | Ave. % Cell Count @ 60 uM BV2 cells (BV2 cells) [%] | Ave. % Phagocytosis @ 60 uM BV2 cells (BV2 cells) [%] | phagocytosis increase against cell count decline (BV2 cells) | HiBit only %, percent luminescence at highest dose with HiBit only compared to control (DMSO) (HiBit only) [%] | HiBit only % @100 μM (HiBit only) [%] | PLCγ2-HiBit %, percent luminescence at highest dose compared to control (DMSO) (PLCγ2-HiBit) [%] | PLCy2-HiBit % @100 (PLCγ2-HiBit; Table 1) [%] | AC50 (PLCγ2-HiBit; [2]) [µM] | AC50 (PLCγ2-HiBit; [3]) [µM] | Ave. % Cell Count @ 60 uM HMC3 cells (HMC3 cells) [%] | Ave. % Phagocytosis @ 60 uM HMC3 cells (HMC3 cells) [%] | further results |
| --- | --- | --- | --- | --- | --- | --- | --- | --- | --- | --- | --- | --- |
| Cc1cccc(NS(=O)(=O)c2c(C)cc(C)cc2C)c1 [Compound 5] | 45 | 165 | the increase was paired with a sharp cell count decline | 95 | 96 | 54 | 54 | > 100 | > 100 | 78 | 111 |  |
| Cc1cc(C)c(S(=O)(=O)Nc2cccc(C(F)F)c2)c(C)c1 [Compound 7] | 2 | 0 |  | 104 | 104 | 78 | 78 |  |  | 6 | 0 | Kinetic solubility [1]: 41 to 60 µM; Papp, MDCK permeability (MDCK): 37.4 ×10−^6 cm/s |
| O=S(=O)(Nc1cccc(C(F)(F)F)c1)c1ccc(Cl)cc1Cl [Compound 9] | 9 | 581 | the increase was paired with a sharp cell count decline | 38 | 38 | 32 | 32 | 71 | 71 | 16 | 281 |  |
| Cc1cc(Br)ccc1S(=O)(=O)Nc1cccc(C(F)(F)F)c1 [Compound 10] | 1 | 434 | the increase was paired with a sharp cell count decline | 40 | 40 | 17 | 17 | 57 | 57 | 11 | 93 |  |
| CC[C@H](Nc1ncnc2[nH]cnc12)c1nc2cccc(F)c2c(=O)n1-c1ccccc1 [Idelalisib, reference compound] |  |  |  |  |  |  |  |  |  |  |  | effect on phagocytosis (BV2 cells; BV2 cells, 48 hours treatment): did not inhibit phagocytosis in BV2 cells, but increased phagocytosis in parallel with decreasing cell counts and increasing nuclear intensity; EC50 (BV2 cells; BV2 cells, 48 hours treatment, 60 μM the maximal dose, read-out: stimulation of phagocytosis EC50): > 60 µM; IC50 (BV2 cells; BV2 cells, 48 hours treatment): 22 µM; EC50 (BV2 cells; BV2 cells, 48 hours treatment, read-out: nuclear intensity increase EC50): 4.14 µM; IC50 (HMC3 cells; HMC3 cells, 48 hours treatment): 0.526 µM; IC50 (HMC3 cells; [4]): ~0.5 µM |
| CN1CCN(CCOc2cc(OC3CCOCC3)c3c(Nc4c(Cl)ccc5c4OCO5)ncnc3c2)CC1 [Saracatinib, reference compound] |  |  |  |  |  |  |  |  |  |  |  | concentrations showing cell count decreases (BV2 cells; BV2 cells, 48 hours treatment): > 1 µM; IC50 (BV2 cells; BV2 cells, 48 hours treatment): 0.833 µM; EC50 (BV2 cells; BV2 cells, 48 hours treatment, read-out: increased phagocytosis EC50): 0.266 µM; concentrations showing cytotoxicity (HMC3 cells; HMC3 cells, 48 hours treatment): > 10 µM; EC50 (HMC3 cells; HMC3 cells, 48 hours treatment): 0.182 µM; EC50 (HMC3 cells; [4]): < 0.2 µM |
| Lipopolysaccharides [LPS, reference compound] |  |  |  |  |  |  |  |  |  |  |  | changes in nuclear intensity (BV2 cells; BV2 cells, 48 hr): no nuclear intensity changes up to 10 μg/ml LPS; also recorded: no changes in nuclear intensity; inhibition of cell count IC50 (BV2 cells; BV2 cells, 48 hr): 0.122 µg/mL; stimulation of phagocytosis EC50 (BV2 cells; BV2 cells, 48 hr): 0.255 µg/mL; response (phagocytosis, cell count, nuclear intensity) (HMC3 cells; HMC3 cells, 48 hr): did not respond to LPS treatment |
